Earlier results on three compounds are cited in patent US9622975B2, “Pharmaceutical composition” (Novartis AG, priority 2005, dated 2017).

For data set [1] the following is noted: especially in the alkaline conditions of the intestine.
For data set [2] the following is noted: in vivo.

The structures appear in SMILES notation.

With `O=C(O)CCCCCCCNC(=O)c1cc(Cl)ccc1O` [Example 5-CNAC, N-(5-chlorosalicyloyl)-8-aminocaprylic acid], the water solubility entry in data set [1] is reported as “very water soluble”.
On to `O=C(O)CCCCCCCNC(=O)c1ccccc1O` [SNAC, N-(8-[2-hydroxybenzoyl]amino) caprylic acid], for which, in data set [1], the water solubility result is reported as “very water soluble”.
As for `O=C(O)CCCCCCCCCNC(=O)c1ccccc1O` [SNAD, N-(10-[2-hydroxybenzoyl]amino) decanoic acid], in data set [2], the “absorbed by the gastro-intestinal tract” value was “greater than 90%”.
